For one experiment, the species on record is Homo sapiens. Briefly: Inhibition of PKCbeta2 (unknown origin) at 10 uM after 120 mins P33 radiolabeled kinase activity assay.
Experiment [1] concerns the target Casein kinase II subunit alpha (Homo sapiens) (UniProt P68400). Kind of experiment: Inhibition of CK2alpha (unknown origin) at 10 uM after 120 mins P33 radiolabeled kinase activity assay.
In experiment [2] the target is T1, Testis-specific serine/threonine-protein kinase 2 (Homo sapiens) (UniProt Q96PF2).
T1 sequence (whole entry): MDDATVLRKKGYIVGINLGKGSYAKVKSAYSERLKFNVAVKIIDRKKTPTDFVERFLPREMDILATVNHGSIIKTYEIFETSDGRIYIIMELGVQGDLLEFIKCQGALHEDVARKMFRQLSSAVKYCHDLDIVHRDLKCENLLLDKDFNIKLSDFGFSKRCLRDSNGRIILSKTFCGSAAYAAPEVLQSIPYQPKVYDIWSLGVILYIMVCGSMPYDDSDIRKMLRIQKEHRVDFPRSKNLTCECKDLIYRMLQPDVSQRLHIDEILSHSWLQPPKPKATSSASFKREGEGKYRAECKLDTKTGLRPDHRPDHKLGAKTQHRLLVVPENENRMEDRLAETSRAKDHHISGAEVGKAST
Briefly: Inhibition of TSSK2 (unknown origin) at 10 uM after 120 mins P33 radiolabeled kinase activity assay.

For experiment [3], the target named is T2, Rhodopsin kinase GRK7 (Homo sapiens) (UniProt Q8WTQ7).
T2 sequence (whole entry): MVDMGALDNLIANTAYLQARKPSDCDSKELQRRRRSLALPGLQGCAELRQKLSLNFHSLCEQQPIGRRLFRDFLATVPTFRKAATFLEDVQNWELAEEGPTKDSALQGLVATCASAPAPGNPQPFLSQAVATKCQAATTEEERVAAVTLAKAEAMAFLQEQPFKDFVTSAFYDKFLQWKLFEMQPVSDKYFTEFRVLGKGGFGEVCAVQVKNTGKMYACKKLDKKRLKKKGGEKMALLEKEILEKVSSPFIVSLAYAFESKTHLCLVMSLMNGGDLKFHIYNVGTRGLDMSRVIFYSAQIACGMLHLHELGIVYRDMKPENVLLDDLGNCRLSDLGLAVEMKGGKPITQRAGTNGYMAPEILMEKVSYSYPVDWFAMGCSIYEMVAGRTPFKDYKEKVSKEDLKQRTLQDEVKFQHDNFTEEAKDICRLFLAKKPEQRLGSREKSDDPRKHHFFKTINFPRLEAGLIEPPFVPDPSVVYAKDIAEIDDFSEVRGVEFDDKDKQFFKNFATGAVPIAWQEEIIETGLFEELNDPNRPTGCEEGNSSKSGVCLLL
Briefly: Inhibition of GRK7 (unknown origin) at 10 uM after 120 mins P33 radiolabeled kinase activity assay.

For experiment [4], the target named is Maternal embryonic leucine zipper kinase (Homo sapiens) (UniProt Q14680). Kind of experiment: Inhibition of MELK (unknown origin) at 10 uM after 120 mins P33 radiolabeled kinase activity assay.
Sequence of Maternal embryonic leucine zipper kinase (Homo sapiens) (Q14680 whole entry, looked up): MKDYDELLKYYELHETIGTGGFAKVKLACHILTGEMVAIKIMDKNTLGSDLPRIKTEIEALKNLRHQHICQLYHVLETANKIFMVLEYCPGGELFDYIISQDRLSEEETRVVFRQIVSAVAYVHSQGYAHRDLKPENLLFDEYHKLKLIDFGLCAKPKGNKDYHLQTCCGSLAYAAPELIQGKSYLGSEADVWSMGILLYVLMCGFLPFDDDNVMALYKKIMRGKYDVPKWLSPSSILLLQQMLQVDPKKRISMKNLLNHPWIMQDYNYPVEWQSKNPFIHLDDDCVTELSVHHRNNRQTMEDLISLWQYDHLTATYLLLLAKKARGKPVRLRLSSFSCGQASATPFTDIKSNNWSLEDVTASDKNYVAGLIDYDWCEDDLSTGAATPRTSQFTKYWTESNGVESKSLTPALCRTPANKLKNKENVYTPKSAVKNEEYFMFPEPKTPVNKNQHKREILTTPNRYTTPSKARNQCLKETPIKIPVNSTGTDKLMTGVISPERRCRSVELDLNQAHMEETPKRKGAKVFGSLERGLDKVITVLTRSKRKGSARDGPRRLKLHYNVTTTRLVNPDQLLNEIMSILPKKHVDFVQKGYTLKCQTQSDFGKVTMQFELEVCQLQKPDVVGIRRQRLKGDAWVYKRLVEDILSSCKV
Experiment [5] has as its target Serine/threonine-protein kinase PAK 4 (Homo sapiens) (UniProt O96013). Kind of experiment: Inhibition of PAK4 (unknown origin) at 10 uM after 120 mins P33 radiolabeled kinase activity assay.
The target in experiment [6] is T3, Ephrin type-A receptor 3 (Homo sapiens) (UniProt P29320).
T3 sequence (whole entry): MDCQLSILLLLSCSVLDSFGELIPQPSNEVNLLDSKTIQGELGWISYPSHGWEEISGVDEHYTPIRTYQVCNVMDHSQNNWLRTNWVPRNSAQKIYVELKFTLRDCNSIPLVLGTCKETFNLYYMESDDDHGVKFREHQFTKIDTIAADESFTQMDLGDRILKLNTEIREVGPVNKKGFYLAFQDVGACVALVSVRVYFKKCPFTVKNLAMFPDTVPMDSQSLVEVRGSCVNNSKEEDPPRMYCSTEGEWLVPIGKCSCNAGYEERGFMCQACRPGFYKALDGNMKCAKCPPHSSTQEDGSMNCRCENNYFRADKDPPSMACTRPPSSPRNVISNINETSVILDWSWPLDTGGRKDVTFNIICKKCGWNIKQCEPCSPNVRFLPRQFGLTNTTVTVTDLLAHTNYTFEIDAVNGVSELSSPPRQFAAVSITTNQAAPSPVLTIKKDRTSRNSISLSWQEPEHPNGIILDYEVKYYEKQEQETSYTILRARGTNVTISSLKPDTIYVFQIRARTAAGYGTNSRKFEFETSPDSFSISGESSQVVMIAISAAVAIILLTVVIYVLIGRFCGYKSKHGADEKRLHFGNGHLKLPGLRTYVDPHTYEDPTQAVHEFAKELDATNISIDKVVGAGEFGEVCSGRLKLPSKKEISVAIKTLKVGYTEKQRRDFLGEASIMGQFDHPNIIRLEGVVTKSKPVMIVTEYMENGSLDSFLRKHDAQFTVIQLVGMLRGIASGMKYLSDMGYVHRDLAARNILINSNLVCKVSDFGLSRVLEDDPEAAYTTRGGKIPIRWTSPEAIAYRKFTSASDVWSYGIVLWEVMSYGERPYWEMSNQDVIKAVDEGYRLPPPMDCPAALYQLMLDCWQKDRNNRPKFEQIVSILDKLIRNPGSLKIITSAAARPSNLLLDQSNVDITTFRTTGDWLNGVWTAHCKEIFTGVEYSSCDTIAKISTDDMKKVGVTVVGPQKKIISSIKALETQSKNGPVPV
Briefly: Inhibition of EPHA3 (unknown origin) at 10 uM after 120 mins P33 radiolabeled kinase activity assay.

In experiment [7] the target is Tyrosine-protein kinase JAK2 (Homo sapiens) (UniProt O60674). Briefly: Inhibition of JAK2 (unknown origin) at 10 uM after 120 mins P33 radiolabeled kinase activity assay.
Sequence of Tyrosine-protein kinase JAK2 (Homo sapiens) (O60674 whole entry): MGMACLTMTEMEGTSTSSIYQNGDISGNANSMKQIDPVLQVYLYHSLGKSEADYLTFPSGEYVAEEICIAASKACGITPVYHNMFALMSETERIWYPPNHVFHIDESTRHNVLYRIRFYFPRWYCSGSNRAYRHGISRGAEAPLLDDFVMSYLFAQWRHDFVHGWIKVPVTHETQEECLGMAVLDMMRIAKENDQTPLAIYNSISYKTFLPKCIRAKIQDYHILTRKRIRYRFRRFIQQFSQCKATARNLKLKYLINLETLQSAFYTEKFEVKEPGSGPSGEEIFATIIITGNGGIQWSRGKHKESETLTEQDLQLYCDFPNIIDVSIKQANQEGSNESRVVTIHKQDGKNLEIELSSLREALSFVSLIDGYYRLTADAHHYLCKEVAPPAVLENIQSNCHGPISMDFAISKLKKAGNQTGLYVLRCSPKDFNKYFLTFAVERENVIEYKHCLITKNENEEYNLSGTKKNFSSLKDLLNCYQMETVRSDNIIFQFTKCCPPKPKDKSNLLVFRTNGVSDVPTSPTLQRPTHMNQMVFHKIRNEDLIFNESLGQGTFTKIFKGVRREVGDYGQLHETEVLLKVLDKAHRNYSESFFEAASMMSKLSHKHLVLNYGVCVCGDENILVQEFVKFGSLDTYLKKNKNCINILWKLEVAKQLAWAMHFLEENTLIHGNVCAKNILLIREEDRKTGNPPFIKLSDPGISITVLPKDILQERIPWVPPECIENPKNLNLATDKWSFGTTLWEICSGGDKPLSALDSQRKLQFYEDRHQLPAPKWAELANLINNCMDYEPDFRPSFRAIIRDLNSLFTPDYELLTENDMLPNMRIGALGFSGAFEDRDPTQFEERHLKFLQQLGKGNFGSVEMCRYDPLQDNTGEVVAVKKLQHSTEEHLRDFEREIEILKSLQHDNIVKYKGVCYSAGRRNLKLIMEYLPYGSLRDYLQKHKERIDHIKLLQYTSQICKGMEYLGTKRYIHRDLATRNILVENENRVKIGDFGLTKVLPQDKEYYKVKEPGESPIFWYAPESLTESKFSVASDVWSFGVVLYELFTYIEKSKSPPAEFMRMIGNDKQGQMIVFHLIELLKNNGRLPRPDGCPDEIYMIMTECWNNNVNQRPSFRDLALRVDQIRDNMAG

Sequence of Serine/threonine-protein kinase PAK 4 (Homo sapiens) (O96013 whole entry, looked up): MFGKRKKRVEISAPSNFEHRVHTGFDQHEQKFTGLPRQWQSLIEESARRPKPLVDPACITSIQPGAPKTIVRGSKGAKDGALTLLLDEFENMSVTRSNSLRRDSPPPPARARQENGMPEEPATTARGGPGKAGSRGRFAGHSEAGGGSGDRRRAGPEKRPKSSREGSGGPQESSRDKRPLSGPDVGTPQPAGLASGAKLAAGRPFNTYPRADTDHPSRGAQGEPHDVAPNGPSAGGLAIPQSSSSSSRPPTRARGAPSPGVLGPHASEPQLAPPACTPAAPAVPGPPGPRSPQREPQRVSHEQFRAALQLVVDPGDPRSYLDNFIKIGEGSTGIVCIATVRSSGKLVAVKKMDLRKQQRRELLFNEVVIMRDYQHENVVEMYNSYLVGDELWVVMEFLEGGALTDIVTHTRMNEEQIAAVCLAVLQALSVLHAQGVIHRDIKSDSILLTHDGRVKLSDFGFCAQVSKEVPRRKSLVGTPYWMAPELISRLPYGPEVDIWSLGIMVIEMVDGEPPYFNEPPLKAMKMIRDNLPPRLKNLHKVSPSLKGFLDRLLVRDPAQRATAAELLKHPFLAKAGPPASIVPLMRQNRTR
Sequence of Casein kinase II subunit alpha (Homo sapiens) (P68400 whole entry, looked up): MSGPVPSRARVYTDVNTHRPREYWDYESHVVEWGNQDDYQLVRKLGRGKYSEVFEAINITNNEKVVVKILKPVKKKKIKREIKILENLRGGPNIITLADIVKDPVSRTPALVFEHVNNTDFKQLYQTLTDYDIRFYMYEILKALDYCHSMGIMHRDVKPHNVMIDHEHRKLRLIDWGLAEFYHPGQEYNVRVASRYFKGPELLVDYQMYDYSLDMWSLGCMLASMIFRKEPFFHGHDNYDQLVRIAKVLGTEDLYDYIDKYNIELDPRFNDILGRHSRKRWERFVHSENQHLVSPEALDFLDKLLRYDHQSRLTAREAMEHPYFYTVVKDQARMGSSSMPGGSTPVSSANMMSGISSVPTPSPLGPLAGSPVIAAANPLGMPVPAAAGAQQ

In general, inhibition refers to the drop in the measured response relative to a control, in per cent. Take `COCCNC(=O)c1ccc2c(c1)nc(-c1cnc(-c3ccc(Cl)cc3)[nH]1)n2CCOC`: the inhibition worked out at 31.5% in the experiment filed under Homo sapiens; 8.6% in experiment [1]; 3.82% in experiment [2]; 2.32% in experiment [3]; 8.47% in experiment [4]; 5.75% in experiment [5]. For the same compound, the inhibition in experiment [6] is 17.5%; in experiment [7], -2.57%.
Take `CC(C)(C)c1cc(NC(=O)Nc2ccc(Oc3ccncc3)cc2)no1`: the inhibition in the experiment listed under Homo sapiens is 9.88%; in experiment [1] it was 20%; in experiment [2], 1.87%; in experiment [3], 2.1%; in experiment [4], -0.03%; in experiment [5] it was 5.19%. In addition, the values for the inhibition in experiment [6] and in experiment [7] were 91.5% and -0.98%, respectively.
With `CS(=O)(=O)c1cccc(Nc2nccc(-c3sc(N4CCOCC4)nc3-c3cccc(NS(=O)(=O)c4c(F)cccc4F)c3)n2)c1`, the inhibition in the experiment filed under Homo sapiens turned out to be 9.1%; in experiment [1], 19.7%; in experiment [2], 1.83%; in experiment [3] it was 25.3%; in experiment [4] it was 69.3%; in experiment [5] it was 4.24%. Moreover, the inhibition in experiment [6] stood at 57.4%; in experiment [7], 12%.

The record behind these values is ChEMBL document CHEMBL3627608, “Crystal structures of human RIP2 kinase catalytic domain complexed with ATP-competitive inhibitors: Foundations for understanding inhibitor selectivity” (Bioorg Med Chem, 2015).
